Data on 22 molecules can be found in PMC5387716, “Discovery of monocarbonyl curcumin-BTP hybrids as STAT3 inhibitors for drug-sensitive and drug-resistant breast cancer therapy” (Scientific Reports, 2017).

One data set has as its system MCF-7/DOX cells. Description: MTT anti-proliferative assay, MCF-7/DOX. The note with it: for IC50: MTT, 48 h, read-out: MCF-7/DOX IC50 ± SD. It counts as cell-based, human. Here is the method:
(§1) All cell lines were purchased from Cell Bank of Shanghai Institute of Biochemistry and Cell Biology, Chinese Academy of Sciences (Shanghai, China). Human breast carcinoma cells (MCF-7 and MCF-7/DOX), breast epithelial cells (MCF-10A) and normal human liver cells (LO2) were maintained in RPMI-1640 medium. All cells were supplemented with 12% fetal bovine serum containing 50 μg/ml penicillin and 50 μg/ml streptomycin. Cells were grown to 80% confluency in a tissue culture flask at 37 °C in a humidified atmosphere containing 5% CO2, and then were trypsinized with 1 × Trypsin-Versene and split. The MCF-7/DOX cell line we used was established from its parental cell line MCF-7 cell by gradually increasing the concentration of DOX to which the cells were exposed in a stepwise manner over a period of 8 months. […] The cells were incubated in drug-free medium for at least 1 week before use.
(§2) Cells (MCF-7, MCF-7/DOX, MCF-10A, LO2) were seeded in 96-well plates at a density of 3,000–6,000 cells per well. The cells were incubated overnight (16 h) in a humidified 5% CO2 incubator at 37 °C. After media removal, different concentrations of test compounds were added in triplicate to the plates in 200 μL of fresh media and were incubated with the cells at 37 °C for 48 h. […] Cell viability was evaluated using 3-(4, 5-dimethylthiazolyl)-2,5-diphenyltetrazoliumbromide (MTT). The absorbance was read by an ELISA reader (SpectraMax Plus384, Molecular Devices, Sunnyvale, CA) at a test wavelength of 570 nm and a reference wavelength of 630 nm. Cell viability was calculated using the following formula: […]
For orientation: Formazan colour is commonly taken as a measure of viable cells.

For a further data set, the system named is MCF-7 cells. Description: MTT anti-proliferative assay, MCF-7. It counts as cell-based, human. The note with it: read-out: MCF-7 IC50 ± SD. On the procedure: as §1, §2
Another data set relates to LO2 cells. Description: MTT anti-proliferative assay, LO2. It counts as cell-based. The note with it: Homo sapiens, L02, 48 h, normal human liver cells, Table 2 prints no unit, μM. On the procedure:
as §1, §2

For another data set, the system named is MCF-10A cells. As to the kind of experiment: MTT anti-proliferative assay, MCF-10A. It counts as cell-based, human. The note with it: Homo sapiens, MCF-10A, 48 h, normal breast epithelial cells, Table 2 prints no unit, μM. On the procedure:
as §1, §2

Usually melting point stands for the temperature, or range, at which the solid turns liquid.

Read-outs that look alike come from different tables or passages of the source. A value given as a limit tells only on which side of the number the result lay.

Consider `COc1ccc(/C=C/C(=O)N2CCN(C(=O)C3=Cc4cc(Br)ccc4S3(=O)=O)CC2)cc1OC` [Compound 6a, (E)-1-(4-(5-bromo-1,1-dioxidobenzo[b]thiophene-2-carbonyl)piperazin-1-yl)-3-(3,4-dimethoxyphenyl)prop-2-en-1-one], for which the melting point is 244 to 246 °C. For the same molecule, the IC50 in the data set with MCF-7/DOX cells (Homo sapiens, MCF7-DOX) worked out at 1.82 ± 0.19 µM. Further, in the data set with MCF-7 cells (Homo sapiens, MCF7, 48 h), the IC50 came to 0.71 ± 0.14 µM.

In turn, `COc1cc(/C=C/C(=O)N2CCN(C(=O)C3=Cc4cc(Br)ccc4S3(=O)=O)CC2)cc(OC)c1OC` [Compound 6c, (E)-1-(4-(5-bromo-1,1-dioxidobenzo[b]thiophene-2-carbonyl)piperazin-1-yl)-3-(3,4,5-trimethoxyphenyl)prop-2-en-1-one] showed a melting point of 94 to 96 °C. Also, the IC50 in the data set with MCF-7/DOX cells (Homo sapiens, MCF7-DOX) stood at 0.86 ± 0.13 µM. Further, the IC50 with MCF-7 cells (Homo sapiens, MCF7, 48 h) came to 1.23 ± 0.08 µM.

Consider `COc1cc(/C=C/C(=O)N2CCN(C(=O)C3=Cc4cc(Br)ccc4S3(=O)=O)CC2)cc(OC)c1O` [Compound 6d, (E)-1-(4-(5-bromo-1,1-dioxidobenzo[b]thiophene-2-carbonyl)piperazin-1-yl)-3-(4-hydroxy-3,5-dimethoxyphenyl)prop-2-en-1-one], for which the melting point was 125 to 127 °C. For the same molecule, the IC50 with MCF-7/DOX cells (Homo sapiens, MCF7-DOX) was found to be 2.27 ± 0.6 µM. Besides, in the data set with MCF-7 cells (Homo sapiens, MCF7, 48 h), the IC50 amounted to 2.25 ± 0.35 µM.

`O=C(/C=C/c1ccc([N+](=O)[O-])cc1)N1CCN(C(=O)C2=Cc3cc(Br)ccc3S2(=O)=O)CC1` [Compound 6e, (E)-1-(4-(5-bromo-1,1-dioxidobenzo[b]thiophene-2-carbonyl)piperazin-1-yl)-3-(4-nitrophenyl)prop-2-en-1-one]: the melting point was over 250 °C. In the data set with MCF-7/DOX cells (Homo sapiens, MCF7-DOX), the IC50 came out at 1.08 ± 0.14 µM. Moreover, in the data set on MCF-7 cells (Homo sapiens, MCF7, 48 h), the IC50 stood at 1.18 ± 0.08 µM.

`O=C(/C=C/c1ccccn1)N1CCN(C(=O)C2=Cc3cc(Br)ccc3S2(=O)=O)CC1` [Compound 6f, (E)-1-(4-(5-bromo-1,1-dioxidobenzo[b]thiophene-2-carbonyl)piperazin-1-yl)-3-(pyridin-2-yl)prop-2-en-1-one]: the melting point was in the range of 241 to 242 °C. For the same molecule, the IC50 with MCF-7/DOX cells (Homo sapiens, MCF7-DOX) stood at 1.89 ± 0.27 µM. For the same molecule, the IC50 in the data set with MCF-7 cells (Homo sapiens, MCF7, 48 h) was determined as 1.08 ± 0.06 µM.

`O=C(/C=C/c1ccc(Br)cc1)N1CCN(C(=O)C2=Cc3cc(Br)ccc3S2(=O)=O)CC1` [Compound 6g, (E)-1-(4-(5-bromo-1,1-dioxidobenzo[b]thiophene-2-carbonyl)piperazin-1-yl)-3-(4-bromophenyl)prop-2-en-1-one]: the melting point was over 250 °C. The IC50 with MCF-7/DOX cells (Homo sapiens, MCF7-DOX) worked out at 1.18 ± 0.07 µM. For the same molecule, the IC50 in the data set on MCF-7 cells (Homo sapiens, MCF7, 48 h) was 2.08 ± 0.06 µM.

`O=C(/C=C/c1ccc(Cl)cc1)N1CCN(C(=O)C2=Cc3cc(Br)ccc3S2(=O)=O)CC1` [Compound 6h, (E)-1-(4-(5-bromo-1,1-dioxidobenzo[b]thiophene-2-carbonyl)piperazin-1-yl)-3-(4-chlorophenyl)prop-2-en-1-one] showed a melting point of 225 to 227 °C. Further, the IC50 in the data set with MCF-7/DOX cells (Homo sapiens, MCF7-DOX) amounted to 0.72 ± 0.13 µM. In the data set with MCF-7 cells (Homo sapiens, MCF7, 48 h), the IC50 was determined as 2.02 ± 0.2 µM.

`O=C(/C=C/c1ccc(C(F)(F)F)cc1)N1CCN(C(=O)C2=Cc3cc(Br)ccc3S2(=O)=O)CC1` [Compound 6i, (E)-1-(4-(5-bromo-1,1-dioxidobenzo[b]thiophene-2-carbonyl)piperazin-1-yl)-3-(4-(trifluoromethyl)phenyl)prop-2-en-1-one] had a melting point of 245 to 247 °C. In the data set with MCF-7/DOX cells (Homo sapiens, MCF7-DOX), the IC50 came out at 0.87 ± 0.12 µM. Further, the IC50 in the data set on MCF-7 cells (Homo sapiens, MCF7, 48 h) worked out at 0.67 ± 0.14 µM.

The molecule `O=C(/C=C/c1ccc(F)cc1)N1CCN(C(=O)C2=Cc3cc(Br)ccc3S2(=O)=O)CC1` [Compound 6k, (E)-1-(4-(5-bromo-1,1-dioxidobenzo[b]thiophene-2-carbonyl)piperazin-1-yl)-3-(4-fluorophenyl)prop-2-en-1-one] showed a melting point of over 250 °C. Further, the IC50 in the data set on MCF-7/DOX cells (Homo sapiens, MCF7-DOX) was 2.44 ± 0.57 µM. Also, the IC50 with MCF-7 cells (Homo sapiens, MCF7, 48 h) came out at 1.5 ± 0.18 µM.

As for `COc1ccc(/C=C/C(=O)N2CCN(C(=O)C3=Cc4ccc(Br)cc4S3(=O)=O)CC2)cc1OC` [Compound 6l, (E)-1-(4-(6-bromo-1,1-dioxidobenzo[b]thiophene-2-carbonyl)piperazin-1-yl)-3-(3,4-dimethoxyphenyl)prop-2-en-1-one], the melting point is 222 to 224 °C. Besides, in the data set on MCF-7/DOX cells (Homo sapiens, MCF7-DOX), the IC50 was found to be 1.77 ± 0.12 µM. Moreover, the IC50 in the data set with MCF-7 cells (Homo sapiens, MCF7, 48 h) is 1.25 ± 0.14 µM.

Consider `COc1ccc(/C=C/C(=O)N2CCN(C(=O)C3=Cc4ccc(Br)cc4S3(=O)=O)CC2)cc1` [Compound 6m, (E)-1-(4-(6-bromo-1,1-dioxidobenzo[b]thiophene-2-carbonyl)piperazin-1-yl)-3-(4-methoxyphenyl)prop-2-en-1-one], for which the melting point was 220 to 222 °C. Also, in the data set on MCF-7/DOX cells (Homo sapiens, MCF7-DOX), the IC50 came to 0.38 ± 0.01 µM. Also, in the data set on MCF-7 cells (Homo sapiens, MCF7, 48 h), the IC50 came to 0.99 ± 0.07 µM.

In the case of `COc1cc(/C=C/C(=O)N2CCN(C(=O)C3=Cc4ccc(Br)cc4S3(=O)=O)CC2)cc(OC)c1OC` [Compound 6n, (E)-1-(4-(6-bromo-1,1-dioxidobenzo[b]thiophene-2-carbonyl)piperazin-1-yl)-3-(3,4,5-trimethoxyphenyl)prop-2-en-1-one], the melting point lay within 81 to 85 °C. The IC50 with MCF-7/DOX cells (Homo sapiens, MCF7-DOX) came to 2.88 ± 0.57 µM. Besides, in the data set with MCF-7 cells (Homo sapiens, MCF7, 48 h), the IC50 was determined as 2.62 ± 0.13 µM.

In turn, `COc1cc(/C=C/C(=O)N2CCN(C(=O)C3=Cc4ccc(Br)cc4S3(=O)=O)CC2)cc(OC)c1O` [Compound 6o, (E)-1-(4-(6-bromo-1,1-dioxidobenzo[b]thiophene-2-carbonyl)piperazin-1-yl)-3-(4-hydroxy-3,5-dimethoxyphenyl)prop-2-en-1-one] registered a melting point of 112 to 114 °C. Besides, the IC50 with MCF-7/DOX cells (Homo sapiens, MCF7-DOX) stood at 9.49 ± 2.8 µM. The IC50 in the data set on MCF-7 cells (Homo sapiens, MCF7, 48 h) stood at 2.9 ± 0.36 µM.

In the case of `O=C(/C=C/c1ccccc1O)N1CCN(C(=O)C2=Cc3ccc(Br)cc3S2(=O)=O)CC1` [Compound 6p, (E)-1-(4-(6-bromo-1,1-dioxidobenzo[b]thiophene-2-carbonyl)piperazin-1-yl)-3-(2-hydroxy)prop-2-en-1-one], the melting point is over 250 °C. Moreover, the IC50 in the data set with MCF-7/DOX cells (Homo sapiens, MCF7-DOX) was found to be 3.78 ± 0.14 µM. Moreover, in the data set on MCF-7 cells (Homo sapiens, MCF7, 48 h), the IC50 came to 4 ± 0.91 µM.

`O=C(/C=C/c1ccccn1)N1CCN(C(=O)C2=Cc3ccc(Br)cc3S2(=O)=O)CC1` [Compound 6q, (E)-1-(4-(6-bromo-1,1-dioxidobenzo[b]thiophene-2-carbonyl)piperazin-1-yl)-3-(pyridin-2-yl)prop-2-en-1-one] showed a melting point of 97 to 99 °C. Also, in the data set with MCF-7/DOX cells (Homo sapiens, MCF7-DOX), the IC50 amounted to 4.42 ± 0.17 µM. For the same molecule, in the data set with MCF-7 cells (Homo sapiens, MCF7, 48 h), the IC50 was 1.48 ± 0.19 µM.

For the molecule `O=C(/C=C/c1ccc(Br)cc1)N1CCN(C(=O)C2=Cc3ccc(Br)cc3S2(=O)=O)CC1` [Compound 6r, (E)-1-(4-(6-bromo-1,1-dioxidobenzo[b]thiophene-2-carbonyl)piperazin-1-yl)-3-(4-bromophenyl)prop-2-en-1-one], the melting point was in the range of 215 to 217 °C. Moreover, in the data set with MCF-7/DOX cells (Homo sapiens, MCF7-DOX), the IC50 was 2.61 ± 0.82 µM. Also, in the data set with MCF-7 cells (Homo sapiens, MCF7, 48 h), the IC50 is 1.6 ± 0.13 µM.

Consider `O=C(/C=C/c1ccc(Cl)cc1)N1CCN(C(=O)C2=Cc3ccc(Br)cc3S2(=O)=O)CC1` [Compound 6s, (E)-1-(4-(6-bromo-1,1-dioxidobenzo[b]thiophene-2-carbonyl)piperazin-1-yl)-3-(4-chlorophenyl)prop-2-en-1-one], for which the melting point lay within 225 to 227 °C. For the same molecule, the IC50 with MCF-7/DOX cells (Homo sapiens, MCF7-DOX) was 2.23 ± 0.16 µM. The IC50 with MCF-7 cells (Homo sapiens, MCF7, 48 h) is 1.6 ± 0.09 µM.

As for `COc1cccc2c1C(=O)c1c(O)c3c(c(O)c1C2=O)C[C@@](O)(C(=O)CO)C[C@@H]3O[C@H]1C[C@H](N)[C@H](O)[C@H](C)O1` [DOX, doxorubicin, reference compound], the IC50 in the data set on MCF-7/DOX cells (Homo sapiens, MCF7-DOX) was 64.7 ± 3.8 µM; in the data set with MCF-7 cells (Homo sapiens, MCF7, 48 h), 0.98 ± 0.08 µM; in the data set with LO2 cells, 0.82 ± 0.12 µM; in the data set on MCF-10A cells, 0.98 ± 0.17 µM. In addition, in the data set with MCF-7/DOX cells (MCF-7/DOX vs MCF-7), the “resistance to DOX compared with parental DOX-sensitive cells” value worked out at 66.02 fold.

As for “(E)-1-(4-(5-bromo-1,1-dioxidobenzo[b]thiophene-2-carbonyl)piperazin-1-yl)-3-(4-fluorophenyl)prop-2-en-1-one [Compound 6v]”, the IC50 was found to be 2.14 ± 0.27 µM with MCF-7/DOX cells and 1.45 ± 0.17 µM in the data set with MCF-7 cells (48 h).

For “(E)-1-(4-(5-bromo-1,1-dioxidobenzo[b]thiophene-2-carbonyl)piperazin-1-yl)-3-(4-hydroxy-3-methoxyphenyl)prop-2-en-1-one [Compound 6j]”, the values for the IC50 in the data set with MCF-7/DOX cells and with MCF-7 cells (48 h) were 1 ± 0.76 µM and 0.86 ± 0.09 µM, respectively.

For the molecule “(E)-1-(4-(6-bromo-1,1-dioxidobenzo[b]thiophene-2-carbonyl)piperazin-1-yl)-3-(3-hydroxy-4-methoxyphenyl)prop-2-en-1-one [Compound 6t]”, the figures for the IC50 with MCF-7/DOX cells and with MCF-7 cells (48 h) were 2.02 ± 0.34 µM and 3.03 ± 0.22 µM, respectively.

For “(E)-1-(4-(6-bromo-1,1-dioxidobenzo[b]thiophene-2-carbonyl)piperazin-1-yl)-3-(4-hydroxy-3-methoxyphenyl)prop-2-en-1-one [Compound 6u]”, the figures for the IC50 in the data set on MCF-7/DOX cells and in the data set on MCF-7 cells (48 h) were 0.55 ± 0.01 µM and 1.44 ± 0.11 µM, respectively.
